# Patent publication US9187472B2 (AbbVie Inc., priority 2012, dated 2015)
# Assays:
# [1] = molecular target: NAMPT (human, recombinant, C-terminally His-tagged) (Homo sapiens, UniProt P43490); assay: Time-Resolved Fluorescence Resonance Energy Transfer (TR-FRET) Binding Assay of NAMPT; conditions: without substrates; 6.8 nM NAMPT, 200 nM probe, 3 hours equilibration
# Outline: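 Compounds, diluted in half-log steps, are mixed with enzyme (6.8 nM), fluorescent probe (200 nM) and Tb-anti-His antibody (1 nM) in pH 7.5 HEPES buffer containing 10 mM MgCl2 and 1 mM DTT. Plates equilibrate 3 h at room temperature; normalized FRET ratios are fitted by four-parameter logistic regression for IC50.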
# NAMPT = NAMPT (Homo sapiens, UniProt P43490); assay: TR-FRET Binding Assay of NAMPT with PRPP; conditions: with 200 μM PRPP and 2.5 mM ATP; 2 nM NAMPT, 2 nM probe, 16 hours equilibration
# Outline: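 Compounds were mixed with 2 nM His-tagged NAMPT, 2 nM probe, 1 nM terbium anti-His antibody, 200 μM PRPP and 2.5 mM ATP in assay buffer with 2% DMSO, then left 16 hours to permit possible enzymatic processing of compounds before time-resolved FRET was measured.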
# PC3 cells = assay: NAMPT Cell Proliferation Assay; format: cell-based; conditions: Homo sapiens, PC-3, 120 h, 5 days incubation, cell viability by Cell Titer Glo
# Outline: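 PC3 cells were plated at 500 cells/well in RPMI with 10% heat-inactivated FBS, left to attach overnight, then given compounds in 10-fold dilutions from 10 μM to 1×10^−5 μM. After 5 days at 37° C and 5% CO2, viability was read by luminescence and IC50s came from sigmoidal fits of percent inhibition.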
# Chain of NAMPT (human, recombinant, C-terminally His-tagged) (P43490 whole entry): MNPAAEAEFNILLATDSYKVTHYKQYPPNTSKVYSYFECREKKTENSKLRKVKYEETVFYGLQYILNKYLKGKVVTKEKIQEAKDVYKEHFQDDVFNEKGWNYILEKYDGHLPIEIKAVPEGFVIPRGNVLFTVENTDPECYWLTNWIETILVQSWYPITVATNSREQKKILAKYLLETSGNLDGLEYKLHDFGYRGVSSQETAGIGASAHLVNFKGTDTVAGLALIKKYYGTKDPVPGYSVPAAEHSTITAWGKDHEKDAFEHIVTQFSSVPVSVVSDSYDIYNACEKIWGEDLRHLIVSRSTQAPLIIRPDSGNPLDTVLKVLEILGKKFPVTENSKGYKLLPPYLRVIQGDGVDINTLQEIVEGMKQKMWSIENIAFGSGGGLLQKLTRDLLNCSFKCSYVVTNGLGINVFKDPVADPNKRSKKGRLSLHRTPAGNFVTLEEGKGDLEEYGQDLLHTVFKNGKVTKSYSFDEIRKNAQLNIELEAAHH
# Chain of NAMPT (P43490 whole entry): as above
IC50 [1],IC50 (NAMPT),IC50 (PC3 cells),Compound
0.301 µM,0.000276 µM,0.0719 µM,"O=C(NCc1ccn2ccnc2c1)Nc1ccc(OC2CN(C(=O)[C@H]3CCCO3)C2)cc1 [Example 431, 1-(imidazo[1,2-a]pyridin-7-ylmethyl)-3-[4-({1-[(2R)-tetrahydrofuran-2-ylcarbonyl]azetidin-3-yl}oxy)phenyl]urea]"
0.0911 µM,0.000907 µM,0.0058 µM,"O=C(NCc1ccn2ccnc2c1)Nc1ccc(C2CCN(C(=O)CC3CC3)CC2)cc1 [Example 712, 1-{4-[1-(cyclopropylacetyl)piperidin-4-yl]phenyl}-3-(imidazo[1,2-a]pyridin-7-ylmethyl)urea]"
0.335 µM,0.000707 µM,0.012 µM,"CC(C)(C)C(=O)N1CC(c2ccc(C(=O)NCc3ccn4ccnc4c3)cc2)C1 [Example 633, 4-[1-(2,2-dimethylpropanoyl)azetidin-3-yl]-N-(imidazo[1,2-a]pyridin-7-ylmethyl)benzamide]"
8.39 µM,0.000792 µM,8.11 µM,"CC(C)C(=O)N1CC[C@H](Oc2ccc(C(=O)NCc3ccn4ccnc4c3)cc2)C1 [Example 351, N-(imidazo[1,2-a]pyridin-7-ylmethyl)-4-{[(3S)-1-(2-methylpropanoyl)pyrrolidin-3-yl]oxy}benzamide]"
0.0643 µM,0.00122 µM,0.0138 µM,"O=C(NCc1ccn2ccnc2c1)Nc1ccc(O[C@@H]2CCN(C(=O)c3cccc(F)c3)C2)cc1 [Example 690, 1-(4-{[(3R)-1-(3-fluorobenzoyl)pyrrolidin-3-yl]oxy}phenyl)-3-(imidazo[1,2-a]pyridin-7-ylmethyl)urea]"
0.645 µM,0.000793 µM,0.0807 µM,"O=C(NCc1ccn2ccnc2c1)c1ccc(C2CCN(S(=O)(=O)C3CC3)C2)cc1 (stereo not drawn) [Example 626, 4-[1-(cyclopropylsulfonyl)pyrrolidin-3-yl]-N-(imidazo[1,2-a]pyridin-7-ylmethyl)benzamide]"
2.71 µM,0.000226 µM,0.147 µM,"O=C(NCc1ccn2ccnc2c1)c1ccc(OC2CCN(C(=O)C3CCOCC3)CC2)cc1 [Example 420, N-(imidazo[1,2-a]pyridin-7-ylmethyl)-4-{[1-(tetrahydro-2H-pyran-4-ylcarbonyl)piperidin-4-yl]oxy}benzamide]"
0.706 µM,0.000919 µM,0.695 µM,"O=C(NCc1ccn2ccnc2c1)c1ccc(C2CCN(C(=O)c3ccoc3)C2)cc1 (stereo not drawn) [Example 612, 4-[1-(furan-3-ylcarbonyl)pyrrolidin-3-yl]-N-(imidazo[1,2-a]pyridin-7-ylmethyl)benzamide]"
0.381 µM,0.00041 µM,0.0777 µM,O=C(NCc1ccn2ccnc2c1)Nc1ccc(C2CN(C(=O)[C@@H]3CCCO3)C2)cc1 [Example 459]

# Continued, compound first:
Compound,IC50 [1],IC50 (NAMPT),IC50 (PC3 cells)
"O=C(NCc1ccn2ccnc2c1)c1ccc(C2CCN(C(=O)c3cccc(F)c3)C2)s1 (stereo not drawn) [Example 762, 5-[1-(3-fluorobenzoyl)pyrrolidin-3-yl]-N-(imidazo[1,2-a]pyridin-7-ylmethyl)thiophene-2-carboxamide]",0.0301 µM,0.000506 µM,0.00112 µM
"O=C(CC1CCOCC1)Nc1ccc(C(=O)NCc2ccc3nccn3c2)cc1 [Example 79, N-(imidazo[1,2-a]pyridin-6-ylmethyl)-4-[(tetrahydro-2H-pyran-4-ylacetyl)amino]benzamide]",0.121 µM,0.00697 µM,0.00745 µM
"O=C(CCC1CCCC1)Nc1ccc(C(=O)NCc2ccc3nccn3c2)cc1 [Example 81, 4-[(3-cyclopentylpropanoyl)amino]-N-(imidazo[1,2-a]pyridin-6-ylmethyl)benzamide]",0.0155 µM,0.00268 µM,0.0071 µM
"O=C(NCc1ccn2ccnc2c1)c1ccc(-c2cnn(CC3CCOC3)c2)s1 (stereo not drawn) [Example 252, N-(imidazo[1,2-a]pyridin-7-ylmethyl)-5-[1-(tetrahydrofuran-3-ylmethyl)-1H-pyrazol-4-yl]thiophene-2-carboxamide]",0.0374 µM,0.000274 µM,0.00191 µM
"O=C(NCc1ccn2ccnc2c1)c1ccc(C2CCN(C(=O)Cc3cc(F)cc(F)c3)C2)s1 (stereo not drawn) [Example 764, 5-{1[(3,5-difluorophenyl)acetyl]pyrrolidin-3-yl}-N-(imidazo[1,2-a]pyridin-7-ylmethyl)thiophene-2-carboxamide]",0.135 µM,0.000465 µM,0.0687 µM
"O=C(CC1CCOCC1)Nc1ccc(NC(=O)NCc2ccc3nccn3c2)cc1 [Example 278, N-(4-{[(imidazo[1,2-a]pyridin-6-ylmethyl)carbamoyl]amino}phenyl)-2-(tetrahydro-2H-pyran-4-yl)acetamide]",0.102 µM,0.000621 µM,0.0517 µM
"N#CC1(C(=O)N2CCC(c3ccc(C(=O)NCc4ccn5ccnc5c4)cc3)CC2)CC1 [Example 514, 4-{1-[(1-cyanocyclopropyl)carbonyl]piperidin-4-yl}-N-(imidazo[1,2-a]pyridin-7-ylmethyl)benzamide]",0.368 µM,0.000249 µM,0.0308 µM
"O=C(NCc1ccn2ccnc2c1)c1ccc(Oc2ccccc2)cc1 [Example 489, N-(imidazo[1,2-a]pyridin-7-ylmethyl)-4-phenoxybenzamide]",1.22 µM,0.000263 µM,> 10 µM
"O=C(NCc1ccn2ccnc2c1)c1ccc(C2CCN(C(=O)c3ccncc3)CC2)cc1 [Example 535, N-(imidazo[1,2-a]pyridin-7-ylmethyl)-4-[1-(pyridin-4-ylcarbonyl)piperidin-4-yl]benzamide]",0.297 µM,0.000325 µM,0.0285 µM
"CC(C)(C)CC(=O)N1CC(c2ccc(C(=O)NCc3ccn4ccnc4c3)cc2)C1 [Example 652, 4-[1-(3,3-dimethylbutanoyl)azetidin-3-yl]-N-(imidazo[1,2-a]pyridin-7-ylmethyl)benzamide]",0.535 µM,0.00116 µM,0.0346 µM
"O=C(NCc1ccn2ccnc2c1)c1ccc(C2CN(C(=O)c3ccc(F)cc3)C2)cc1 [Example 649, 4-[1-(4-fluorobenzoyl)azetidin-3-yl]-N-(imidazo[1,2-a]pyridin-7-ylmethyl)benzamide]",0.203 µM,0.000749 µM,0.0706 µM
"O=C(NCc1ccn2ccnc2c1)c1ccc(C2CN(C(=O)c3ccncn3)C2)cc1 [Example 663, N-(imidazo[1,2-a]pyridin-7-ylmethyl)-4-[1-(pyrimidin-4-ylcarbonyl)azetidin-3-yl]benzamide]",0.653 µM,0.00107 µM,0.09 µM
"COCCOCC(=O)Nc1ccc(NC(=O)Nc2ccc3nccn3c2)cc1 [Example 42, N-{4-[(imidazo[1,2-a]pyridin-6-ylcarbamoyl)amino]phenyl}-2-(2-methoxyethoxy)acetamide]",0.697 µM,0.000381 µM,1.59 µM
"CC(C)CC(=O)N1CCC(c2ccc(C(=O)NCc3cn4ccnc4cn3)cc2)CC1 [Example 816, N-(imidazo[1,2-a]pyrazin-6-ylmethyl)-4-[1-(3-methylbutanoyl)piperidin-4-yl]benzamide]",0.0461 µM,0.00158 µM,0.00482 µM
"O=C(NCc1ccn2ccnc2c1)c1cnc(N2CC(COCc3ccccc3)OC2=O)s1 (stereo not drawn) [Example 218, 2-{5-[(benzyloxy)methyl]-2-oxo-1,3-oxazolidin-3-yl}-N-(imidazo[1,2-a]pyridin-7-ylmethyl)-1,3-thiazole-5-carboxamide]",0.123 µM,0.000169 µM,0.0711 µM
"O=C(NCc1ccn2ccnc2c1)c1ccc(C2CCN(C(=O)c3ccccc3F)C2)cc1 (stereo not drawn) [Example 589, 4-[1-(2-fluorobenzoyl)pyrrolidin-3-yl]-N-(imidazo[1,2-a]pyridin-7-ylmethyl)benzamide]",0.0161 µM,0.000887 µM,0.00131 µM
"O=C(NCc1ccc2nccn2c1)c1cnc(N(CC2CCCO2)C(=O)Cc2ccon2)s1 (stereo not drawn) [Example 134, N-(imidazo[1,2-a]pyridin-6-ylmethyl)-2-[(1,2-oxazol-3-ylacetyl)(tetrahydrofuran-2-ylmethyl)amino]-1,3-thiazole-5-carboxamide]",0.303 µM,0.00149 µM,0.00654 µM
"O=C(NCc1ccc2nccn2c1)c1ccc(OC2CCN(C(=O)CC3CCOCC3)CC2)cc1 [Example 171, N-(imidazo[1,2-a]pyridin-6-ylmethyl)-4-{[1-(tetrahydro-2H-pyran-4-ylacetyl)piperidin-4-yl]oxy}benzamide]",2.17 µM,0.00251 µM,0.0447 µM
"CCCCC(=O)NC1(c2ccc(C(=O)NCc3ccn4ccnc4c3)s2)COC1 [Example 327, N-(imidazo[1,2-a]pyridin-7-ylmethyl)-5-[3-(pentanoylamino)oxetan-3-yl]thiophene-2-carboxamide]",1.32 µM,0.000558 µM,0.638 µM
"CC(C)(C)OC(=O)N1CCC(c2ccc(NC(=O)NCc3cn4ccnc4cn3)cc2)CC1 [Example 680, tert-butyl 4-(4-{[(imidazo[1,2-a]pyrazin-6-ylmethyl)carbamoyl]amino}phenyl)piperidine-1-carboxylate]",0.0371 µM,0.00238 µM,0.629 µM
